Source: patent publication US9399666B2, “Inhibiting interaction between the HIF-1ALPHA and p300/CBP with hydrogen bond surrogate-based helices” (New York University, priority 2008, dated 2016)
One block for each molecule: values may come before it. Peptide text beside a SMILES is read from it.

What was measured:
[1] = Percent helicity by circular dichroism spectroscopy; format: physicochemical
Excerpt: Helix αA of HIF-1α C-TAD, shown in FIG. 1A and FIG. 1C, is critical for the interaction between the CH1 domain and HIF-1α, because mutation of its residues or hydroxylation of Asn803 is known to disrupt this complex and inhibit HIF-1α mediated transcription (Freedman et al., “Structural Basis for Recruitment of CBP/p300 by Hypoxia-inducible Factor-1α,” Proc. Nat'l Acad. Sci. USA 99:5367-72 (2002); Dames et al., “Structural Basis for Hif-1α/CBP Recognition in the Cellular Hypoxic Response,” Proc. Nat'1 Acad. Sci. USA 99:5271-6 (2002). Development of HBS helices as potential inhibitors of VEGF transcription was begun by mimicking the aA helix region of HIF-1. This helix consists of eight residues, […] (SEQ ID NO: 111), and features three residues, Asp-Cys-Glu, critical for binding with p300/CBP. Several linear peptides and their HBS α-helix analogs were designed to gauge the potential of these molecules to inhibit VEGF transcription in cell culture. Each unconstrained peptide and HBS helix was synthesized using the procedures described in (Dimartino et al., “Solid-phase Synthesis of Hydrogen-bond Surrogate-derived α-Helices,” Org. Lett. 7:2389-92 (2005); Chapman & Arora, “Optimized Synthesis of Hydrogen-bond Surrogate Helices: Surprising Effects of Microwave Heating on the Activity of Grubbs Catalysts,” Org. Lett. 8:5825-8 (2006)). The percent helicity of each peptide was determined using circular dichroism spectroscopy in 10 mM phosphate buffered saline as described in (Wang et al., “Evaluation of Biologically Relevant Short α-Helices Stabilized by a Main-chain Hydrogen-bond Surrogate,” J. Am. Chem. Soc. 128:9248-56 (2006)). The affinity of each peptide for p300 was measured by isothermal titration calorimetry analysis (Wiseman et al., “Rapid Measurement of Binding Constants and Heats of Binding Using a New Titration calorimeter,” Anal. Biochem. 179:131-7 (1989); Freire et al., “Isothermal Titration calorimetry,” Anal. Chem. 62:A950-A959 (1990); Chervenak & Toone, “Calorimetric Analysis of the Binding of Lectins with Overlapping Carhohydrate-binding Ligand Specificities,” Biochemistry 34:5685-95 (1995); Aki et al., “Competitive Binding of Drugs to the Multiple Binding Sites on Human Serum Albumin. A calorimetric Study,” J Thermal Anal. calorim. […] The ability of each peptide to downregulate VEGF transcription in cell culture was evaluated by […] quantitative RT-PCR, as described above. The cytotoxicity of each peptide was determined by monitoring cellular growth and population doubling in the presence of individual peptides at 1μM concentration.

circular dichroism = details: 10 mM phosphate buffered saline (par. 0128, each peptide; pH given only for 22 and 25, Fig 6B), pH 7.4, ns °C
MDA-MB-231-HRE-Luc cells = format: cell-based
Protocol: MDA-MB-231-HRE-Luc cells were maintained in high glucose Dulbecco's Modified Eagle's Medium (“DMEM”) supplemented with 10% fetal bovine serum and 0.4 g/L Geneticin (G418 sulfate, RPI Corporation). Cells were plated in 24-well dishes (BD Falcon) at a density of […] using 1 mL of a 6.5×10^4 cell/mL suspension. […] Cells were incubated for 6 hours at 37° C. in a humidified atmosphere with 5% CO2. Hypoxia was induced by adding desferoxamine mesylate (DFO, Sigma) to a final concentration of 300 μM, and cells were incubated for an additional 18 hours. Whole cell lysates were isolated by washing the cells twice with ice cold PBS and then adding 150 μL of Cell Culture Lysis Reagent (“CCLR,” Promega). Lysate was collected, centrifuged at 13,000 rpm at 4° C., aliquoted, and stored at −80° C. Luciferase assays were conducted according to the manufacturer's instructions (Promega) using a Turner TD-20e Luminometer. Relative light intensity measurements were normalized by performing a Bradford assay to determine the protein content of the lysate used in the luciferase assay. Briefly, 50 μL of cell lysate/luciferase assay reagent mix was added to 200 μL of Bradford reagent and 750 μL of Millipore water in a 1.5 mL cuvette. Protein standards were created in the range of 1 μg/mL to 10 μg/mL with the appropriate amount of a 1 mg/mL BSA solution. Absorbance was measured at 595 nm using a DU-800 spectrophotometer. The experiments were carried out in triplicate with the error bars calculated as standard error of the mean.

[2] = system: VEGF transcription in HeLa cells; assay: VEGF gene expression by real-time qRT-PCR; format: cell-based; details: FIG. 7
Excerpt: Real-time qRT-PCR was used to determine the effect of HBS helices on the level of expression of VEGF and GLUT1 genes in HeLa and MCF-7 cells, both under normoxic and hypoxic conditions. For VEGF analysis, the forward primer 5′AGGCCAGCACATAGGAGAGA-3′ (SEQ ID NO: 105) and reverse primer 5′TTTCCCTTTCCTCGAACTGA-3′ (SEQ ID NO:106) were used to amplify a 104-bp fragment from the […] of the gene. For GLUT1 (SLC2A1) analysis, the following sequences were utilized to yield a product of 179 bp: forward sequence 5′-TAGAAACATGGTTTTGAAATGC-3′ (SEQ ID NO:107), reverse sequence 5′-GGTAACAGGGATCAAACAGATT-3′ (SEQ ID NO:108). The levels of expression of β-glucuronidase were used as endogenous controls, since they remain unchanged under experimental conditions. The forward primer 5′-CTCATTTGGAATTTTGCCGATT-3′ (SEQ ID NO:109) and reverse primer 5′-CCGAGTGAAGATCCCCTTTTTA-3′ (SEQ ID NO:110) were used for this gene. Temperature cycling and detection of the SYBR green emission were performed with an ABI 7300 real-time PCR instrument. Data were analyzed with ABI Sequence Detection System, version 1.2. Statistical analysis was performed with the data from six independent experiments. The experiment was performed with Applied Biosystems SYBR Green RT-PCR master mix.

experimental animals = details: cited from earlier work
p300 [3] = target: p300 (Homo sapiens, UniProt Q09472); assay: Affinity for p300 by isothermal titration calorimetry; format: binding; details: isothermal titration calorimetry, p300; read-out: Kd (ITC)
Excerpt: Helix αA of HIF-1α C-TAD, shown in FIG. 1A and FIG. 1C, is critical for the interaction between the CH1 domain and HIF-1α, because mutation of its residues or hydroxylation of Asn803 is known to disrupt this complex and inhibit HIF-1α mediated transcription (Freedman et al., “Structural Basis for Recruitment of CBP/p300 by Hypoxia-inducible Factor-1α,” Proc. Nat'l Acad. Sci. USA 99:5367-72 (2002); Dames et al., “Structural Basis for Hif-1α/CBP Recognition in the Cellular Hypoxic Response,” Proc. Nat'1 Acad. Sci. USA 99:5271-6 (2002). Development of HBS helices as potential inhibitors of VEGF transcription was begun by mimicking the aA helix region of HIF-1. This helix consists of eight residues, […] (SEQ ID NO: 111), and features three residues, Asp-Cys-Glu, critical for binding with p300/CBP. Several linear peptides and their HBS α-helix analogs were designed to gauge the potential of these molecules to inhibit VEGF transcription in cell culture. Each unconstrained peptide and HBS helix was synthesized using the procedures described in (Dimartino et al., “Solid-phase Synthesis of Hydrogen-bond Surrogate-derived α-Helices,” Org. Lett. 7:2389-92 (2005); Chapman & Arora, “Optimized Synthesis of Hydrogen-bond Surrogate Helices: Surprising Effects of Microwave Heating on the Activity of Grubbs Catalysts,” Org. Lett. 8:5825-8 (2006)). The percent helicity of each peptide was determined using circular dichroism spectroscopy in 10 mM phosphate buffered saline as described in (Wang et al., “Evaluation of Biologically Relevant Short α-Helices Stabilized by a Main-chain Hydrogen-bond Surrogate,” J. Am. Chem. Soc. 128:9248-56 (2006)). The affinity of each peptide for p300 was measured by isothermal titration calorimetry analysis (Wiseman et al., “Rapid Measurement of Binding Constants and Heats of Binding Using a New Titration calorimeter,” Anal. Biochem. 179:131-7 (1989); Freire et al., “Isothermal Titration calorimetry,” Anal. Chem. 62:A950-A959 (1990); Chervenak & Toone, “Calorimetric Analysis of the Binding of Lectins with Overlapping Carhohydrate-binding Ligand Specificities,” Biochemistry 34:5685-95 (1995); Aki et al., “Competitive Binding of Drugs to the Multiple Binding Sites on Human Serum Albumin. A calorimetric Study,” J Thermal Anal. calorim. 57:36170 (1999); Graziano et al., “Linkage of Proton Binding to the Thermal Unfolding of Sso7d from the Hyperthermophilic Archaebacterium Sulfolobus solfataricus,” Int'l J. Biol. Macromolecules 26:45-53 (1999); Pluschke & Mutz, “Use of Isothermal Titration calorimetry in the Development of Molecularly Defined Vaccines,” J Thermal Anal. calorim. 57:377-88 (1999); Corbell et al., “A Comparison of Biological and calorimetric Analyses of Multivalent Glycodendrimer Ligands for Concanavalin A,” Tetrahedron-Asymmetry 11:95-111 (2000)). The ability of each peptide to downregulate VEGF transcription in cell culture was evaluated by […] quantitative RT-PCR, as described above. The cytotoxicity of each peptide was determined by monitoring cellular growth and population doubling in the presence of individual peptides at 1μM concentration.

[4] = system: HIF-1α C-TAD and p300/CBP; details: literature (Kung et al. 2004); cited from earlier work
p300 [5] = target: T1, p300 (UniProt Q09472 323-423, limits assumed); assay: isothermal titration calorimetry
T1 construct: also called p300/CBP
T1 sequence (Q09472 323-423 limits assumed): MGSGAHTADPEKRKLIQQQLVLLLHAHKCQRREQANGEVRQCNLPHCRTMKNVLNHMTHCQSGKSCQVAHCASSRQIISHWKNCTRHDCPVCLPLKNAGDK

Chain of p300 (Homo sapiens, UniProt Q09472) (Q09472 whole entry, the tested form may be a part): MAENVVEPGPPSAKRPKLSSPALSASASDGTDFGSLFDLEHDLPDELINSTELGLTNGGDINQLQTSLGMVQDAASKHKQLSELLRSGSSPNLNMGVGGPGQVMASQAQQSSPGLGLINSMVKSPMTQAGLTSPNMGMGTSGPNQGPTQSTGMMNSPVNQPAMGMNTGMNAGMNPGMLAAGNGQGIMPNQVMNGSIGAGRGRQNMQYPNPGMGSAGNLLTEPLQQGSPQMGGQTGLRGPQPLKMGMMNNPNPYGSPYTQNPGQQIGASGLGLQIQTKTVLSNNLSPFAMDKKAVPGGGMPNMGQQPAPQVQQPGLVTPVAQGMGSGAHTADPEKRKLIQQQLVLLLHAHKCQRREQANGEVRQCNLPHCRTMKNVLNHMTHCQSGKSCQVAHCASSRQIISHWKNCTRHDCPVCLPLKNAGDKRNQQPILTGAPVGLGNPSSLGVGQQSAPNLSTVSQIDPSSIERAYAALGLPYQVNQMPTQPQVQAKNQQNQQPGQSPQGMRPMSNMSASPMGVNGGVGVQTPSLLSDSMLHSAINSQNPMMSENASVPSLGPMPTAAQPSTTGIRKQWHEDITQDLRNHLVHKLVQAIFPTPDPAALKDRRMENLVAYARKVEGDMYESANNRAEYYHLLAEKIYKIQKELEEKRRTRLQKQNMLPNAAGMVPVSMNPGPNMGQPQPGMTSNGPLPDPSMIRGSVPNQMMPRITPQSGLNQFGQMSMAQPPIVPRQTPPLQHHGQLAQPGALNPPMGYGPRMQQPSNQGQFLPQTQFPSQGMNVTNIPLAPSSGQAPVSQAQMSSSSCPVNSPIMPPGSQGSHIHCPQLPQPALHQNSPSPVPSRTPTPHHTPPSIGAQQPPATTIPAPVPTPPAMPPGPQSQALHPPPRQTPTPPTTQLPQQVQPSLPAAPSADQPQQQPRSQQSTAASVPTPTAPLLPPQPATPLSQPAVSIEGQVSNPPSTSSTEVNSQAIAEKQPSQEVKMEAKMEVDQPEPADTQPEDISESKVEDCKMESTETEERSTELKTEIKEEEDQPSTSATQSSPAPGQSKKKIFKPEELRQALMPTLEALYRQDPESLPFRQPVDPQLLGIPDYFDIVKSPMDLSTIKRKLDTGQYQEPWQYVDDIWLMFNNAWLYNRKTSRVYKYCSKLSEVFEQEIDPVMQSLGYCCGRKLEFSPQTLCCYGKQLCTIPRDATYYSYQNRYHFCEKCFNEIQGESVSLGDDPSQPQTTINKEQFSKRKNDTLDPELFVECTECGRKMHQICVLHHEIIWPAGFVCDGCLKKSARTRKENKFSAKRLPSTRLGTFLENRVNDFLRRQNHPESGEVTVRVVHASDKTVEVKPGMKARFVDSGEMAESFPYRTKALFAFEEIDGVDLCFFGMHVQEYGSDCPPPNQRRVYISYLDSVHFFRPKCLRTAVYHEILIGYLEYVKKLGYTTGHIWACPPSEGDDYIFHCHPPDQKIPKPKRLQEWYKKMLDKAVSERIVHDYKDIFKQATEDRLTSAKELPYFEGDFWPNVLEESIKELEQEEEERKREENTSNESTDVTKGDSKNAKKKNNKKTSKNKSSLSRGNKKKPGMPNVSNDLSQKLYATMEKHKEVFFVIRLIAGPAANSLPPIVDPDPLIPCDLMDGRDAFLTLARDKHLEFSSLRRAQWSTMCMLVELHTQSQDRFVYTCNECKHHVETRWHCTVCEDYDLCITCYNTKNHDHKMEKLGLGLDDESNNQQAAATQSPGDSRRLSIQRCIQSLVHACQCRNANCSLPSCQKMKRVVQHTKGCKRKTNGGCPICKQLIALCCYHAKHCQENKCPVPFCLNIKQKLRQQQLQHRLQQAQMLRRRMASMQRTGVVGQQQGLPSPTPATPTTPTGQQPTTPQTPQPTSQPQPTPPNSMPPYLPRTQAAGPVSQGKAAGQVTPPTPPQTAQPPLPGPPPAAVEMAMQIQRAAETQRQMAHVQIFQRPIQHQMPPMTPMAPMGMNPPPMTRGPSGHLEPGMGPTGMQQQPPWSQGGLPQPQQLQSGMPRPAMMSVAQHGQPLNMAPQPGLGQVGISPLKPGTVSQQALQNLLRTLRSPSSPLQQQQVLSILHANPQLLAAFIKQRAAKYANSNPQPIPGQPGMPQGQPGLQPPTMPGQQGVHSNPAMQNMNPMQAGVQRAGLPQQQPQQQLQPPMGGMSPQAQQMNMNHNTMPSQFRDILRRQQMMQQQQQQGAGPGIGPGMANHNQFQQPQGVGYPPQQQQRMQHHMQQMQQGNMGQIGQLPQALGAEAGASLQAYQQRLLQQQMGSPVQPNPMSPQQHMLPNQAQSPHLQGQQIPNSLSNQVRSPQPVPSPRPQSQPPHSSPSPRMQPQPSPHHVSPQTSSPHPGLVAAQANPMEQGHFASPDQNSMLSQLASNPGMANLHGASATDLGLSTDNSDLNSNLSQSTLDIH

Molecule: CC(=O)NCC(=O)N[C@H](C(=O)N[C@@H](C)C(=O)N[C@@H](C)C(=O)N[C@@H](CC(=O)O)C(=O)N[C@@H](CS)C(=O)N[C@@H](CCC(=O)O)C(=O)N[C@@H](Cc1ccc(O)cc1)C(=O)N[C@@H](CC(N)=O)C(=O)N[C@@H](C)C(=O)N[C@@H](CCCNC(=N)N)C(N)=O)[C@@H](C)O [Compound 25] (Ac-GTAADCEYNAR-NH2)
Helical content (in words) [1]: appears to be unstructured
% Helicity ([1]; 10 mM phosphate buffered saline): 15%
helicity (circular dichroism): 15%
% Transcription inhibition in cell culture (Luc & RT-PCR) (MDA-MB-231-HRE-Luc cells; luciferase assay and qRT-PCR, 1 μM peptide): 8 ± 3%
Inhibition of VEGF transcription in HeLa cells (in words) [2]: negligible effect

Molecule: CN1C(=O)[C@]2(Cc3cn([C@]45C[C@@]67SS[C@@](CO)(C(=O)N6[C@H]4Nc4ccccc45)N(C)C7=O)c4ccccc34)SS[C@@]1(CO)C(=O)N2C [Compound 26, chetomin, reference compound]
% Transcription inhibition in cell culture (MDA-MB-231-HRE-Luc cells; 200 nM chetomin, qRT-PCR or luciferase, method not given): 50 ± 5%
Inhibition of VEGF transcription in cell culture (in words) (MDA-MB-231-HRE-Luc cells; cell culture): more potent inhibitor of VEGF transcription than HBS helix 22
Side effects in experimental animals (experimental animals): induced coagulative necrosis, anemia, and leukocytosis
Kd (p300 [3]): 120 nM
Inhibition of interaction between HIF-1α C-TAD and p300/CBP [4]: inhibit the interaction between HIF-1α C-TAD and p300/CBP

Molecule: CN1C(=O)[C@@]23C[C@]4([C@]56C[C@@]78SS[C@@](CO)(C(=O)N7[C@H]5Nc5ccccc56)N(C)C8=O)c5ccccc5N[C@@H]4N2C(=O)[C@]1(CO)SS3 [chaetocin 1, chaetocin]
Side effects in experimental animals (experimental animals): induced coagulative necrosis, anemia, and leukocytosis

B2: peptide 23 (AcTSYDCEVNA-NH2) (peptide)
peptide: Ac-TSYDCEVNA-NH2
notes: also called linear peptide 23; unconstrained peptide 23
Kd (p300 [5]): 1350 nM

Continued, values first:

Kd (p300 [5]): 825 nM
B1: peptide 25 (AcGTAADCEYNAR-NH2) (peptide)
peptide: Ac-GTAADCEYNAR-NH2
notes: Unconstrained analog of HBS helix 22; also called linear control peptide 25; control peptide 25

Kd (p300 [5]): 1220 nM
B3: peptide 24 (AcTAYDCEVNA-NH2) (peptide)
peptide: Ac-TAYDCEVNA-NH2
notes: Unconstrained analog of HBS peptide 20 (alanine in place of serine-797); also called linear peptide 24; unconstrained peptide 24
